Like-named read-outs stand apart in the source and are kept apart here.
Assays:
[1] = tested on: HT 29 (human colon adenocarcinoma); assay: MTT cytotoxicity assay, HT 29; type: cell-based; settings: mean ± SD
Procedure: (§1) Three cancerous cell lines, as well as one normal fibroblast cell line, were bought from the ATCC, USA: MCF 7 (human breast adenocarcinoma), A2780 (human ovary adenocarcinoma), HT 29 (human colon adenocarcinoma), and MRC5 (normal human fetal lung fibroblast). The culture procedure was performed as described in the literature. Briefly, the cells were sub-cultured at 37 °C, 5% CO2, 95% air, and 100% relative humidity. RPMI-1640 media (10% FBS, L-glutamine and 1% antibiotic-antimycotic) was used for all cells except for MRC5, which was maintained in Eagles minimum essential medium (EMEM, 10% FBS and 1% antibiotic-antimycotic). Cytotoxicity of compounds 1–7 and 9 was evaluated by an MTT assay as previously described. Each of the three cell lines and one normal fibroblast were cultured in 96-well plates (3 × 10^3/well), and incubated at 37 °C overnight. Final concentrations of each compound were: 0, 0.05, 0.5, 5, 25, and 50 μM in media (DMSO 0.1%). Each concentration was tested in triplicates. The plates were incubated for 72 h and then MTT (50 μL) was added to each well. Plates were incubated for 3 h, supernatant was aspirated, and 100 μL of DMSO was added to each well. Absorbance was read on a multi-plate reader. The optical density of the purple formazan A550 is proportional to the number of viable cells. Compound concentrations causing 50% inhibition (IC50) compared to control cell growth (100%) were determined. GraphPad Prism version 5.00 for Windows, GraphPad Software (San Diego, CA, USA) was used for analysis.

MCF 7 cells [2] = assay: Cell cycle analysis (PI, flow cytometry); type: cell-based, human; settings: MCF 7, 24 h, 5, 10 and 20 µM, compared to the control
Procedure: The cell cycle is a series of changes occurring from the initial phase of cell formation leading to its division as a consequence of a specific mechanism. Cell cycle phases include G1 (gap 1), S (synthesis), G2 (gap 2), and M (mitosis), with cell cycle arrest usually taking place in the G1/S or the G2/M check points. Compound 1 was used to treat the MCF 7 cell line (24 h; 5 µM, 10 µM, and 20 µM) to investigate possible cell cycle effect.
Cell cycle analysis was performed using MCF 7 cells, which were cultured in 6 well plates (1 × 10^5 cells/well in 2 mL medium), before treatment with compound 1 (0, 5, 10, and 20 μM; 24 h). Cells were washed with cold PBS and trypsinized. Collected cells were centrifuged at 350 g/5 min, and supernatant discarded. Pellets were washed in cold PBS, centrifuged, and fixed overnight in 70% ice-cold ethanol. Centrifuged cells were re-suspended in cold PBS with the addition of ribonuclease A (15 min), followed by PI (2 µL/mL). Samples were held on ice and analyzed by flow cytometry. Data analysis of the DNA contents (PI bound to DNA) of 20,000 events was carried out using Expo 32 software.

[3] = tested on: MCF 7 (human breast adenocarcinoma); assay: MTT cytotoxicity assay, MCF 7; type: cell-based; settings: mean ± SD
Procedure: as §1

[4] = tested on: A2780 (human ovary adenocarcinoma); assay: MTT cytotoxicity assay, A2780; type: cell-based; settings: 72 h, mean ± SD
Procedure: as §1

[5] = tested on: MRC5 (normal human fetal lung fibroblast); assay: MTT cytotoxicity assay, MRC5 normal fibroblasts; type: cell-based; settings: 72 h, normal fibroblast cell line, mean ± SD
Procedure: as §1

[6] = tested on: MCF 7, A2780, and HT 29 cancer cell lines; assay: MTT cytotoxicity assay, tested cancer cell lines taken together; type: cell-based, human; settings: for IC50: 72 h, MTT assay, MCF 7, A2780, HT 29, read-out: IC50 values against the three tested cancer cell lines (range over cell lines); for folds more selective/cytotoxic against tested cancer cell lines compared to MRC5 normal cells: ratio of MRC5 IC50 to cancer cell line IC50
Procedure: as §1

MCF 7 cells [7] = assay: Annexin V FITC/PI apoptosis assay; type: cell-based, human; settings: MCF 7, 24 h, 5, 10 and 20 µM
Source text: Apoptosis was quantified by detecting cell surface exposure of phosphatidylserine (PS) in apoptotic cells using annexin V PI/FITC. Living cells stained with neither of the two dyes (PI−/annexin V−), while early apoptotic cells stain only with annexin V (PI−/annexin V+). In late apoptosis, cell membrane integrity is lost allowing penetration of PI (PI+/annexin V+); while in necrosis (death), cells stain with PI only (PI+/annexin V−).
The Annexin V FITC/PI assay was devised to quantify apoptosis using MCF 7 cells. MCF 7 cells were cultured in 6 well plates (1 × 10^5 cells/well) in 2 mL medium overnight at 37 °C. Then it was treated by compound 1 (24 h; final concentrations: 0, 5, 10, and 20 µM). Media was collected in tubes and kept on ice, and remaining cells were trypsinized, incubated at 37 °C and added to previous tubes. Cells were centrifuged (350 g) and supernatants were discarded. Cells were washed with PBS, centrifuged and pellets re-suspended in binding buffer (100 μL) and annexin V FITC (10 μL). Tubes were incubated at room temperature in the dark for 20 min. Binding buffer (400 μL) and 10 μL propidium iodide (PI) were added. Samples were analyzed by flow cytometry (BC FC500) within 1 h. Viable cells were differentiated from early and late apoptotic/necrotic cells by annexin V (X axis) and PI staining (Y axis).

| Compound | IC50 ([1]; 72 h) [nM] | IC50 ([1]; Homo sapiens, HT-29, 72 h) [nM] | effect on cell cycle (in words) (MCF 7 cells [2]) | effect on cell cycle (in words) (MCF 7 cells [2]; listed as compound 1) | IC50 ([3]; 72 h) [nM] | IC50 ([3]; Homo sapiens, MCF7, 72 h) [nM] | IC50 [4] [nM] | IC50 [5] [nM] | IC50 ([6]; Homo sapiens) [nM] | IC50 [6] [nM] | folds more selective/cytotoxic against tested cancer cell lines compared to MRC5 normal cells [6] | induction of apoptosis (in words) (MCF 7 cells [7]) | induction of apoptosis (in words) (MCF 7 cells [7]; listed as compound 1) |
| --- | --- | --- | --- | --- | --- | --- | --- | --- | --- | --- | --- | --- | --- |
| COc1cc2oc(-c3ccc(O)cc3)c(OC)c(=O)c2c(O)c1OC [Compound 1, 5,4’-dihydroxy-3,6,7-tri-O-methyl flavone (penduletin)] | 2160 ± 20 | ≤ 2000 | caused G1 cell cycle arrest | caused dose-dependent G1 arrest | 2170 ± 260 | ≤ 2000 | 530 ± 450 | 4400 ± 1450 | 530 to 9070 | 530 to 2170 | 2–9 folds | doubled MCF 7 apoptotic populations in a dose dependent manner | induced remarkable apoptosis in a dose dependent manner |
| COc1cc(-c2oc3cc(OC)c(OC)c(O)c3c(=O)c2OC)cc(O)c1OC [Compound 2, 5,3’-dihydroxy-3,6,7,4’,5’-penta-O-methyl flavone] |  | 9070 ± 220 |  |  |  | 6810 ± 40 | 8970 ± 1720 | 5460 ± 1570 |  |  | not selective |  |  |
| COc1cc(-c2oc3cc(OC)c(OC)c(O)c3c(=O)c2OC)cc(OC)c1OC [Compound 3, 5-hydroxy-3,6,7,3’,4’,5’-hexa-O-methyl flavone] |  | 2710 ± 1250 |  |  |  | 2760 ± 160 | 3730 ± 1750 | 11700 ± 1580 | 530 to 9070 |  | 4–5 folds |  |  |
| COc1cc(-c2oc3cc(OC)c(OC)c(OC(C)=O)c3c(=O)c2OC)cc(OC)c1OC [Compound 9, 5-O-acetyl-3,6,7,3’,4’,5’-hexa-O-methyl flavone] | 3180 ± 640 | 2000 to 3000 |  |  | 2190 ± 640 | 2000 to 3000 |  | 19000 ± 2980 |  |  | 6–8 folds |  |  |

— publication PMC8510169, “Isolation, Characterization, Complete Structural Assignment, and Anticancer Activities of the Methoxylated Flavonoids from Rhamnus disperma Roots” (Molecules, 2021)
